Values of other authors in patent US7884091B2, “Methods for treating delirium using glucocorticoid receptor-specific antagonists” (Corcept Therapeutics, Inc., priority 2001, dated 2011).

Details: in one study; Kawai (1989) supra

For `CC#C[C@]1(O)CC[C@H]2[C@@H]3CCC4=CC(=O)CCC4=C3[C@@H](c3ccc(N(C)C)cc3)C[C@@]21C` [mifepristone, 17-beta-hydroxy-11-beta-(4-dimethyl-aminophenyl)-17-alpha-(1-propynyl)-estra-4,9-dien-3-one], the “daily dose excreted in the urine” value is given as “less than 0.5%”.
